This note sets out measurements from patent US7592003B2, “Regulation of toll-like receptors on stem cells” (Oklahoma Medical Research Foundation, priority 2005, dated 2009).

The subject of the experiment is LKS^− cells. Put plainly: Serum-free culture of LKS- myeloid/erythroid progenitors (and CMP, GMP subsets), F4/80 by flow cytometry. The format is cell-based, mouse. The settings on record: 72 h, compared with CSF stimulation. The procedure: FIGS. 4A-D—Activation of TLRs through MyD88 bypasses normal differentiation cues and drives monocytes/macrophages differentiation of myeloid progenitors. (FIG. 4A) Sorted LKS^− cells from C57BL/6 or MyD88^−/− mice were stimulated with medium alone, LPS (10 μg/ml), Pam3CSK4 (1 μg/ml), M-CSF, or GM-CSF. After 72 h in culture, cells were analyzed by flow cytometry for expression of F4/80. Open histograms depict staining with the isotype matched Ab for F4/80. Percentages given in each histogram indicate the frequencies of F4/80^+ cells and the results are representative of three independent experiments. (FIG. 4B) The bar graph depicts yields, i.e., numbers of F4/80^+ cell recovered per input progenitor. Data represent mean values with standard deviations from triplicate cultures and the results are representative of three independent experiments (*P<0.005). […] After 72 h in culture, cells were analyzed by flow cytometry for expression of F4/80. […] After 24 or 48 h in culture, cells were analyzed by flow cytometry for expression of F4/80. […]
FIG. 13—TLR stimulation causes rapid production of F4/80^+ cells from LKS^− cells. […] Stimulated wells were analyzed after 24 h or 48 h of culture by flow cytometry for expression of F4/80. […]

As for Pam3CSK4, the “Yields of F4/80+ cells from LKS- cells” value is reported as “consistently a less potent stimulus”.
